Reference: article PMC8958504 (Journal of Medicinal Chemistry, 2022)
Several values for one entry are separate records, joined by “and”; a condition that tells them apart may be missing. Equal values may be shown once. Entries after “also recorded” stand apart in the source; their conditions may differ.

What was measured:
iNOS = assay: Western blotting of iNOS in hippocampal slices exposed to OA; type: cell-based, mouse; conditions: hippocampal slices treated with OA
Text: (§1) As iNOS can be produced through the NF-κB (nuclear factor kappa-light-chain-enhancer of activated B cells) pathway, we analyzed the levels of p65, one of the components that form the NF-κB transcription factor family.[82] […] We also measured HO-1, an inducible enzyme transcribed by NRF2, known for its anti-inflammatory, antioxidant, and neuroprotective effects. […] NRF2 and NF-κB signaling pathways cooperate to maintain the physiological homeostasis of cellular redox status and to regulate the cellular response to stress and inflammation.[19],[83] […] This last mechanism could be related to our resveratrol-based MTDL 4e.
(§2) After acute treatment, the hippocampal slices were lysed in a cold AKT lysis buffer (137 mM NaCl, 20 mM NaF, 10% glycerol, 20 mM Tris–HCl, 1% Nonidet P-40, 1 μg/mL leupeptin, 1 mM phenylmethylsulfonylfluoride, 1 mM sodium pyrophosphate, and 1 mM Na3VO4, pH 7.5). The total protein in each sample was quantified using the Pierce BCA protein kit (Thermo Fisher). 20 μg of protein was resolved by sodium dodecyl sulfate polyacrylamide gel electrophoresis (SDS-PAGE) and transferred to Immobilon-P PVDF membranes (Millipore Corp.). […] The membranes were washed, incubated with ECL WB Kit (GE Healthcare, Amersham), and exposed using a ChemiDoc MP system (Bio-Rad Laboratories) for the visualization of the specific bands, which were then analyzed with Fiji software.

Thermodynamic solubility = type: physicochemical; conditions: phosphate buffer pH 7.4
QR2 = biological target: T1, QR2 (Mesocricetus auratus, UniProt A0ABM2YAB8); assay: biochemical
T1 sequence (A0ABM2YAB8 1-231): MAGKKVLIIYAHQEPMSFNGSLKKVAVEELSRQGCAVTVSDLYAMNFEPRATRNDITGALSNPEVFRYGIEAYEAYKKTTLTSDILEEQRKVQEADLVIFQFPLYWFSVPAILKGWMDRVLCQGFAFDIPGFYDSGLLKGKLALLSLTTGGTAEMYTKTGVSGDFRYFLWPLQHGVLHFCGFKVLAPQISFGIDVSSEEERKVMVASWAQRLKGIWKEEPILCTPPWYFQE
Protocol: The QR2 experiments were performed in membrane homogenates of hamster brains (https://www.eurofins.fr, catalog ref. 0088). […] First, radioligand displacement was measured at a fixed compound concentration (10 μM) in each receptor.

hMAO-A = biological target: T2, hMAO-A (Homo sapiens, UniProt P21397); assay: biochemical; conditions: read-out: hMAO-A (IC50); recombinant hMAO-A, p-tyramine substrate
T2 sequence (P21397 1-527): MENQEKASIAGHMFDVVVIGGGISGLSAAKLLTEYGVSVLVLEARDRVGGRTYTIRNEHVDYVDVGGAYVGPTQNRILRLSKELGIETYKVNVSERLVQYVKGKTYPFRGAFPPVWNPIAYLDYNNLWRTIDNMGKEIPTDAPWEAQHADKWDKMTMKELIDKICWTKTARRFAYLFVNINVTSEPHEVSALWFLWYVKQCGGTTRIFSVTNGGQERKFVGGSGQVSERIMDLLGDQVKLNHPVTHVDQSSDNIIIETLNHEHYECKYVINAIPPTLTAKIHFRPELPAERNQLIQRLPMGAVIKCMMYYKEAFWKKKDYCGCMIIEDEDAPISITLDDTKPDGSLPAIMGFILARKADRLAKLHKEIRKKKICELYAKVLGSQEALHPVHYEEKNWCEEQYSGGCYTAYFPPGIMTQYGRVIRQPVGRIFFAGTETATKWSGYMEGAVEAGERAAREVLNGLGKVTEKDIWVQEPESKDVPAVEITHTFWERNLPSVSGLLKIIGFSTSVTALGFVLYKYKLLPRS
Protocol: The hMAO-A/B inhibition of all compounds was determined using the Amplex Red MAO assay kit.
Assays were performed following the general procedure previously described.[98] […] The specific fluorescence emission was calculated after subtracting the background activity, which was determined from wells containing all components except the hMAO isoforms, which were replaced with PBS.

adult mice NSCs = assay: Neurogenic studies in SGZ-derived neurospheres; type: cell-based, mouse; conditions: 10 μM
Protocol: Adult mice NSCs were isolated from SGZ of the dentate gyrus of the hippocampus and grown as free-floating neurospheres (NS).[72],[78] The neurogenic potential of each compound was determined using fluorescence confocal microscopy by quantifying the expression of two well-known neuronal markers: human β-III-tubulin (TuJ-1 clone) and microtubule-associated protein 2 (MAP-2). TuJ-1 is expressed in immature neurons, whereas the expression of MAP-2 indicates a consolidated mature neuronal stage.[79] Given that neurogenesis involves not only the proliferation of NSC but also the migration of newly generated cells, the greatest migration distance promoted by each compound was also measured (Figure 8).
Adult male C57BL/6 mice (3 months old) were used in order to determine neurogenesis activity. […] DAPI staining was used as a nuclear marker. Fluorescent representative images were acquired with a Nikon fluorescence microscope 90i coupled to a digital camera Qi. The microscope configuration was adjusted to produce the optimum signal-to-noise ratio. […] Quantification was undertaken using the image analySIS software (Soft Imaging System Corp., Münster, Germany) and normalized to total nuclei (DAPI-stained). The intensity of immunostaining of neurites from TuJ1-labeled cells and the number of MAP-2-positive cells were estimated from nine neurospheres per condition over three independent experiments. The outgrowth of the neurosphere cells was examined under a phase-contrast microscope and the farthest distance of cell migration was calculated from the edge of the sphere. At least 10 plated neurospheres per treatment were analyzed.

p65 = assay: Western blotting of p65 in hippocampal slices exposed to OA; type: cell-based, mouse; conditions: hippocampal slices treated with OA
Text: as §1, §2

In the case of C#CCn1nc(/C=C/c2ccc(OC)cc2)oc1=O [4e, 5-[(E)-2-(4-Methoxyphenyl)ethenyl]-3-(prop-2-yn-1-yl)-1,3,4-oxadiazol-2(3H)-one], the iNOS level (iNOS) is reported as “reduced to basal levels”, the solubility thermodynamic (Thermodynamic solubility) is reported as 76.1 µM and 19.5 µg/mL and the IC50 (QR2) is reported as 570 ± 40 nM. The IC50 (hMAO-A) was over 50 µM, the “TuJ-1 and MAP-2 marked cells” value (adult mice NSCs) was “clearly increased; also recorded: highest expression of young cells (TuJ-1) and mature neurons (MAP-2)” and the cell migration distance (adult mice NSCs) was “extended; also recorded: greatest distance of cell migration”. For the same compound, the p65 level (p65) was “slightly reduced p65 below to the basal value”.
